{"source": "patent US20050112573A1", "about": "“Method of detecting toxic substance” (priority 2001, published 2005)", "tested_on": "yeast genes (level of expressed mRNA)", "assay": "DNA chip analysis of expressed mRNA of yeast genes after 2 h culture with a toxic chemical substance", "format": "cell-based, Saccharomyces cerevisiae S288C", "summary_of_the_method": "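Values are treated-to-control fluorescence ratios from a whole-yeast-genome DNA chip (65° C, over 12 h hybridization) using Cy3/Cy5-labelled cDNA from mRNA. Log-phase S288C cells in YPD at 25° C were exposed 2 h to a toxicant at sublethal, growth-inhibiting concentration.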", "data": [{"substance": "HgCl2 [(3)]", "values": [{"measurement": "The level of expressed mRNA in the presence of chemical substance/", "setting": "yeast gene YFL010C, ratio to control without chemical substance, 2 h culture", "value": 1.3}, {"measurement": "The level of expressed mRNA in the presence of chemical substance/", "setting": "yeast gene YFL024C, ratio to control without chemical substance, 2 h culture", "value": 1.1}, {"measurement": "The level of expressed mRNA in the presence of chemical substance/The level of expressed mRNA in the absence of chemical substance", "setting": "yeast gene YFL028C", "value": 0.7}, {"measurement": "The level of expressed mRNA in the presence of chemical substance/", "setting": "yeast gene YFL032W, ratio to control without chemical substance, 2 h culture", "value": 1.6}, {"measurement": "The level of expressed mRNA in the presence of chemical substance/The level of expressed mRNA in the absence of chemical substance", "setting": "yeast gene YFL043C", "value": 0.6}, {"measurement": "The level of expressed mRNA in the presence of chemical substance/in the absence of chemical substance", "setting": "yeast gene YGL035C", "value": 4.3}, {"measurement": "The level of expressed mRNA in the presence of chemical substance/", "setting": "yeast gene YGL037C, ratio to control without chemical substance, 2 h culture", "value": 6.5}, {"measurement": "The level of expressed mRNA in the presence of chemical substance/", "setting": "yeast gene YGL047W, ratio to control without chemical substance, 2 h culture", "value": 1.6}, {"measurement": "The level of expressed mRNA in the presence of chemical substance/", "setting": "yeast gene YGL053W, ratio to control without chemical substance, 2 h culture", "value": 1.2}, {"measurement": "The level of expressed mRNA in the presence of chemical substance/", "setting": "yeast gene YGL121C, ratio to control without chemical substance, 2 h culture", "value": 1.4}, {"measurement": "The level of expressed mRNA in the presence of chemical substance/The level of expressed mRNA in the absence of chemical substance", "setting": "yeast gene YGL158W", "value": 1.9}, {"measurement": "The level of expressed mRNA in the presence of chemical substance/", "setting": "yeast gene YGL199C, ratio to control without chemical substance, 2 h culture", "value": 1.7}, {"measurement": "The level of expressed mRNA in the presence of chemical substance/The level of expressed mRNA in the absence of chemical substance", "setting": "yeast gene YGL229C", "value": 0.9}, {"measurement": "The level of expressed mRNA in the presence of chemical substance/", "setting": "yeast gene YGR101W, ratio to control without chemical substance, 2 h culture", "value": 1.2}, {"measurement": "The level of expressed mRNA in the presence of chemical substance/", "setting": "yeast gene YGR110W, ratio to control without chemical substance, 2 h culture", "value": 2.2}, {"measurement": "The level of expressed mRNA in the presence of chemical substance/", "setting": "yeast gene YGR130C, ratio to control without chemical substance, 2 h culture", "value": 0.6}, {"measurement": "The level of expressed mRNA in the presence of chemical substance/The level of expressed mRNA in the absence of chemical substance", "setting": "yeast gene YGR136W", "value": 1.3}, {"measurement": "The level of expressed mRNA in the presence of chemical substance/", "setting": "yeast gene YGR154C, ratio to control without chemical substance, 2 h culture", "value": 2.2}, {"measurement": "The level of expressed mRNA in the presence of chemical substance/The level of expressed mRNA in the absence of chemical substance", "setting": "yeast gene YGR189C", "value": 1.5}, {"measurement": "The level of expressed mRNA in the presence of chemical substance/The level of expressed mRNA in the absence of chemical substance", "setting": "yeast gene YGR213C", "value": 1.0}, {"measurement": "The level of expressed mRNA in the presence of chemical substance/", "setting": "yeast gene YGR221C, ratio to control without chemical substance, 2 h culture", "value": 0.9}, {"measurement": "The level of expressed mRNA in the presence of chemical substance/The level of expressed mRNA in the absence of chemical substance", "setting": "yeast gene YGR257C", "value": 0.9}, {"measurement": "The level of expressed mRNA in the presence of chemical substance/in the absence of chemical substance", "setting": "yeast gene YGR287C", "value": 1.3}, {"measurement": "The level of expressed mRNA in the presence of chemical substance/The level of expressed mRNA in the absence of chemical substance", "setting": "yeast gene YHR004C", "value": 0.8}, {"measurement": "The level of expressed mRNA in the presence of chemical substance/The level of expressed mRNA in the absence of chemical substance", "setting": "yeast gene YHR071W", "value": 0.6}, {"measurement": "The level of expressed mRNA in the presence of chemical substance/", "setting": "yeast gene YHR138C, ratio to control without chemical substance, 2 h culture", "value": 2.2}, {"measurement": "The level of expressed mRNA in the presence of chemical substance/The level of expressed mRNA in the absence of chemical substance", "setting": "yeast gene YHR139C", "value": 6.8}, {"measurement": "The level of expressed mRNA in the presence of chemical substance/The level of expressed mRNA in the absence of chemical substance", "setting": "yeast gene YHR142W", "value": 2.1}, {"measurement": "The level of expressed mRNA in the presence of chemical substance/", "setting": "yeast gene YHR199C, ratio to control without chemical substance, 2 h culture", "value": 3.2}, {"measurement": "The level of expressed mRNA in the presence of chemical substance/", "setting": "yeast gene YIL023C, ratio to control without chemical", "value": 2.1}, {"measurement": "The level of expressed mRNA in the presence of chemical substance/", "setting": "yeast gene YIL041W, ratio to control without chemical substance, 2 h culture", "value": 2.1}, {"measurement": "The level of expressed mRNA in the presence of chemical substance/", "setting": "yeast gene YIL087C, ratio to control without chemical substance, 2 h culture", "value": 3.4}, {"measurement": "The level of expressed mRNA in the presence of chemical substance/The level of expressed mRNA in the absence of chemical substance", "setting": "yeast gene YIL123W", "value": 1.2}, {"measurement": "The level of expressed mRNA in the presence of chemical substance/The level of expressed mRNA in the absence of chemical substance", "setting": "yeast gene YIL140W", "value": 1.5}, {"measurement": "The level of expressed mRNA in the presence of chemical substance/", "setting": "yeast gene YJL057C, ratio to control without chemical substance, 2 h culture", "value": 1.6}, {"measurement": "The level of expressed mRNA in the presence of chemical substance/", "setting": "yeast gene YJL066C, ratio to control without chemical substance, 2 h culture", "value": 1.2}, {"measurement": "The level of expressed mRNA in the presence of chemical substance/in the absence of chemical substance", "setting": "yeast gene YJL070C", "value": 1.1}, {"measurement": "The level of expressed mRNA in the presence of chemical substance/The level of expressed mRNA in the absence of chemical substance", "setting": "yeast gene YJL073W", "value": 2.5}, {"measurement": "The level of expressed mRNA in the presence of chemical substance/", "setting": "yeast gene YJL082W, ratio to control without chemical substance, 2 h culture", "value": 2.4}, {"measurement": "The level of expressed mRNA in the presence of chemical substance/The level of expressed mRNA in the absence of chemical substance", "setting": "yeast gene YJL089W", "value": 1.0}, {"measurement": "The level of expressed mRNA in the presence of chemical substance/The level of expressed mRNA in the absence of chemical substance", "setting": "yeast gene YJL116C", "value": 1.3}, {"measurement": "The level of expressed mRNA in the presence of chemical substance/", "setting": "yeast gene YJL151C, ratio to control without chemical substance, 2 h culture", "value": 3.2}, {"measurement": "The level of expressed mRNA in the presence of chemical substance/", "setting": "yeast gene YJL152W, ratio to control without chemical substance, 2 h culture", "value": 1.8}, {"measurement": "The level of expressed mRNA in the presence of chemical substance/", "setting": "yeast gene YJL161W, ratio to control without chemical substance, 2 h culture", "value": 1.5}, {"measurement": "The level of expressed mRNA in the presence of chemical substance/in the absence of chemical substance", "setting": "yeast gene YJL167W", "value": 1.4}, {"measurement": "The level of expressed mRNA in the presence of chemical substance/", "setting": "yeast gene YJL171C, ratio to control without chemical substance, 2 h culture", "value": 2.8}, {"measurement": "The level of expressed mRNA in the presence of chemical substance/in the absence of chemical substance", "setting": "yeast gene YJL216C", "value": 2.2}, {"measurement": "The level of expressed mRNA in the presence of chemical substance/The level of expressed mRNA in the absence of chemical substance", "setting": "yeast gene YJR004C", "value": 3.4}, {"measurement": "The level of expressed mRNA in the presence of chemical substance/", "setting": "yeast gene YJR008W, ratio to control without chemical substance, 2 h culture", "value": 1.2}, {"measurement": "The level of expressed mRNA in the presence of chemical substance/", "setting": "yeast gene YJR054W, ratio to control without chemical", "value": 0.3}, {"measurement": "The level of expressed mRNA in the presence of chemical substance/The level of expressed mRNA in the absence of chemical substance", "setting": "yeast gene YJR086W", "value": 0.8}, {"measurement": "The level of expressed mRNA in the presence of chemical substance/The level of expressed mRNA in the absence of chemical substance", "setting": "yeast gene YKL008C", "value": 2.0}, {"measurement": "The level of expressed mRNA in the presence of chemical substance/The level of expressed mRNA in the absence of chemical substance", "setting": "yeast gene YKL013C", "value": 1.4}, {"measurement": "The level of expressed mRNA in the presence of chemical substance/The level of expressed mRNA in the absence of chemical substance", "setting": "yeast gene YKL039W", "value": 2.4}, {"measurement": "The level of expressed mRNA in the presence of chemical substance/The level of expressed mRNA in the absence of chemical substance", "setting": "yeast gene YKL041W", "value": 1.1}, {"measurement": "The level of expressed mRNA in the presence of chemical substance/", "setting": "yeast gene YKL071W, ratio to control without chemical substance, 2 h culture", "value": 5.4}]}]}
